Source: patent US20240279227A1, “FUSED HETEROCYCLIC DERIVATIVES” (Janssen Sciences Ireland Unlimited Company, priority 2021, published 2024)

Columns and labels:
[1] = tested on: HBV; test: Anti-HBV activity in HepG2.117 cell line (intracellular HBV DNA, real-time PCR); format: cell-based, hepatitis B virus; details: HepG2.117 cells, HBV replication induced, 3 days of treatment, intracellular HBV DNA by real-time PCR
Procedure, shortened: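 HepG2.117 cells (Tet-off, doxycycline-free HBV replication) induced for HBV replication, then exposed to serially diluted compound for 3 days. Intracellular HBV DNA quantified by real-time PCR with HBV-specific primers and probe.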

[2] = tested on: HepG2 or HepG2.117 cells; test: Cytotoxicity, ATPlite Luminescence Assay; format: cell-based, human; details: 3-days incubation unless marked with *, ATPlite viability
Procedure, shortened: (§1)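 Cells were exposed to compounds for 3 or 4 days, after which viability was determined by ATP-based luminescence (ATPlite).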

[3] = Human liver microsome stability; format: in vitro ADME; details: 1 μM compound, NADPH 1 mM, pH 7.4, 37° C., 0-60 min; for HLM Metabolism t1/2: pooled human liver microsomes 0.5 mg/mL; for half-life at 1 μM: human, pooled human liver microsomes, pH 7.4, pooled human liver microsomes 0.5 mg/mL, read-out: HLM Metabolism t1/2
Procedure, shortened: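 Pooled human liver microsomes (0.5 mg/mL) incubated at 37 °C with 1 μM compound in 0.1 M phosphate pH 7.4, 1 mM MgCl2; 1 mM NADPH starts reaction. Samples quenched in acetonitrile at 0–60 min, analysed by LC-MS against internal standard; half-life from slope of ln peak-area ratio versus time.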

[4] = Cytotoxicity, ATPlite Luminescence Assay; format: cell-based, human; details: human, HepG2 or HepG2.117 cells, 3-days incubation unless marked with *, ATPlite viability
Procedure, shortened: as §1

[5] = Hepatitis B virus, HepG2.117, 72 h

| SMILES | EC50 [1] [µM] | CC50 [2] [µM] | HLM Metabolism t1/2 [3] [min] | EC50 [1, 5] [µM] | CC50 [4] [µM] | half-life at 1 μM [3] [min] |
| --- | --- | --- | --- | --- | --- | --- |
| CNC(=O)[C@@H]1CN(C(C)c2ccc(N3CCCC3=O)nc2)C(=O)c2c3c(nn21)C[C@@H](C)N(C(=O)c1ccc(Cl)c(Cl)c1)C3 (relative stereo) [Compound 34B, (3R,7S)-2-(3,4-dichlorobenzoyl)-N,3-dimethyl-O-oxo-9-((S*)-1-(6-(2-oxopyrrolidin-1-yl)pyridin-3-yl)ethyl)-1,2,3,4,7,8,9,10-octahydropyrido[4′,3′:3,4]pyrazolo[1,5-a]pyrazine-7-carboxamide] | 0.049 | > 50 | >180 | – | – | – |
| CNC(=O)[C@@H]1CN(C(C)c2ccc(OC(F)F)c(F)c2)C(=O)c2c3c(nn21)C[C@@H](C)N(C(=O)c1ccc(Cl)c(Cl)c1)C3 (single isomer, unassigned) [Compound 24B, (3R,7S)-2-(3,4-dichlorobenzoyl)-9-((S*)-1-(4-(difluoromethoxy)-3-fluorophenyl)ethyl)-N,3-dimethyl-10-oxo-1,2,3,4,7,8,9,10-octahydropyrido[4′,3′:3,4]pyrazolo[1,5-a]pyrazine-7-carboxamide] | 0.013 | 25.5 | >180 | – | – | – |
| CNC(=O)[C@@H]1CN(C(C)c2nc(C(F)(F)F)cs2)C(=O)c2c3c(nn21)C[C@@H](C)N(C(=O)c1ccc(Cl)c(Cl)c1)C3 (single isomer, unassigned) [Compound 44B, (3R,7S)-2-(3,4-dichlorobenzoyl)-N,3-dimethyl-10-oxo-9-((S*)-1-(4-(trifluoromethyl)thiazol-2-yl)ethyl)-1,2,3,4,7,8,9,10-octahydropyrido[4′,3′:3,4]pyrazolo[1,5-a]pyrazine-7-carboxamide] | 0.091 | > 50 | >180 | – | – | – |
| CNC(=O)[C@@H]1CN(C(C)c2cnc(C(F)(F)F)nc2)C(=O)c2c3c(nn21)C[C@@H](C)N(C(=O)c1ccc(Cl)c(C(F)(F)F)c1)C3 (single isomer, unassigned) [Compound 43B, (3R,7S)-2-(4-chloro-3-(trifluoromethyl)benzoyl)-N,3-dimethyl-10-oxo-9-((S*)-1-(2-(trifluoromethyl)pyrimidin-5-yl)ethyl)-1,2,3,4,7,8,9,10-octahydropyrido[4′,3′:3,4]pyrazolo[1,5-a]pyrazine-7-carboxamide] | 0.057 | > 50 | >180 | – | – | – |
| CNC(=O)[C@@H]1CN(C(C)c2ccccn2)C(=O)c2c3c(nn21)C[C@@H](C)N(C(=O)c1ccc(Cl)c(Cl)c1)C3 (single isomer, unassigned) [Compound 37B, (3R,7S)-2-(3,4-dichlorobenzoyl)-N,3-dimethyl-10-oxo-9-((S*)-1-(pyridin-2-yl)ethyl)-1,2,3,4,7,8,9,10-octahydropyrido[4′,3′:3,4]pyrazolo[1,5-a]pyrazine-7-carboxamide] | 0.067 | > 50 | >180 | – | – | – |
| CNC(=O)[C@@H]1CN(C(C)c2ccc(S(=O)(=O)C3CC3)cc2)C(=O)c2c3c(nn21)C[C@@H](C)N(C(=O)c1ccc(Cl)c(C(F)(F)F)c1)C3 (single isomer, unassigned) [Compound 20B, (3R,7S)-2-(4-Chloro-3-(trifluoromethyl)benzoyl)-9-((S*)-1-(4-(cyclopropylsulfonyl)phenyl)ethyl)-N,3-dimethyl-10-oxo-1,2,3,4,7,8,9,10-octahydropyrido[4′,3′:3,4]pyrazolo[1,5-a]pyrazine-7-carboxamide] | 0.022 | > 50 | >180 | – | – | – |
| CNC(=O)[C@@H]1CN(C(C)c2ccc(NCC(F)(F)F)nc2)C(=O)c2c3c(nn21)C[C@@H](C)N(C(=O)c1ccc(Cl)c(Cl)c1)C3 (single isomer, unassigned) [Compound 33B, (3R,7S)-2-(3,4-dichlorobenzoyl)-N,3-dimethyl-10-oxo-9-((S*)-1-(6-((2,2,2-trifluoroethyl)amino)pyridin-3-yl)ethyl)-1,2,3,4,7,8,9,10-octahydropyrido[4′,3′:3,4]pyrazolo[1,5-a]pyrazine-7-carboxamide] | 0.055 | > 50 | >180 | – | – | – |
| CC(c1ccc(OC(F)F)nc1)N1C[C@@H](C(N)=O)n2nc3c(c2C1=O)CN(C(=O)c1ccc(Cl)c(Cl)c1)[C@H](C)C3 (single isomer, unassigned) [Compound 12B, (3R,7S)-2-(3,4-dichlorobenzoyl)-9-((S*)-1-(6-(difluoromethoxy)pyridin-3-yl)ethyl)-3-methyl-10-oxo-1,2,3,4,7,8,9,10-octahydropyrido[4′,3′:3,4]pyrazolo[1,5-a]pyrazine-7-carboxamide] | 0.027 | 27.4 | >180 | – | – | – |
| CNC(=O)[C@@H]1CN(C(C)c2ccc(OC)nc2)C(=O)c2c3c(nn21)C[C@@H](C)N(C(=O)c1ccc(Cl)c(Cl)c1)C3 (single isomer, unassigned) [Compound 31B, (3R,7S)-2-(3,4-dichlorobenzoyl)-9-((S*)-1-(6-methoxypyridin-3-yl)ethyl)-N,3-dimethyl-10-oxo-1,2,3,4,7,8,9,10-octahydropyrido[4′,3′:3,4]pyrazolo[1,5-a]pyrazine-7-carboxamide] | 0.018 | > 50 | >180 | – | – | – |
| CNC(=O)[C@@H]1CN(C(C)c2ccc(OC(F)F)nc2)C(=O)c2c3c(nn21)C[C@@H](C)N(C(=O)c1ccc(Cl)c(Cl)c1)C3 (single isomer, unassigned) [Compound 11B, (3R,7S)-2-(3,4-dichlorobenzoyl)-9-((S*)-1-(6-(difluoromethoxy)pyridin-3-yl)ethyl)-N,3-dimethyl-10-oxo-1,2,3,4,7,8,9,10-octahydropyrido[4′,3′:3,4]pyrazolo[1,5-a]pyrazine-7-carboxamide] | 0.052 | 23.4 | >180 | – | – | – |
| CNC(=O)[C@@H]1CN([C@@H](C)c2ccc(C(F)(F)F)nc2)C(=O)c2c3c(nn21)C[C@@H](C)N(C(=O)c1ccc(Cl)c(C(F)(F)F)c1)C3 [Compound 15B, (3R,7S)-2-(4-chloro-3-(trifluoromethyl)benzoyl)-N,3-dimethyl-10-oxo-9-((S)-1-(6-(trifluoromethyl)pyridin-3-yl)ethyl)-1,2,3,4,7,8,9,10-octahydropyrido[4′,3′:3,4]pyrazolo[1,5-a]pyrazine-7-carboxamide] | – | – | – | 0.029 | 29.8 | > 180 |
| CNC(=O)[C@@H]1CN([C@H](C)c2ccc(S(C)(=O)=O)cc2)C(=O)c2c3c(nn21)C[C@@H](C)N(C(=O)c1ccc(Cl)c(Cl)c1)C3 [Compound 18A, (3R,7S)-2-(3,4-Dichlorobenzoyl)-N,3-dimethyl-9-((R)-1-(4-(methylsulfonyl)phenyl)ethyl)-10-oxo-1,2,3,4,7,8,9,10-octahydropyrido[4′,3′:3,4]pyrazolo[1,5-a]pyrazine-7-carboxamide] | – | – | – | 0.597 | > 50 | > 180 |
| CC(c1ccc(OC(F)F)nc1)N1C[C@@H](C(N)=O)n2nc3c(c2C1=O)CN(C(=O)c1ccc(Cl)c(Cl)c1)[C@H](C)C3 (single isomer, unassigned) [Compound 12A, (3R,7S)-2-(3,4-Dichlorobenzoyl)-9-((R*)-1-(6-(difluoromethoxy)pyridin-3-yl)ethyl)-3-methyl-10-oxo-1,2,3,4,7,8,9,10-octahydropyrido[4′,3′:3,4]pyrazolo[1,5-a]pyrazine-7-carboxamide] | 0.059 | – | – | – | 24.4 | > 180 |
| CNC(=O)[C@@H]1CN([C@H](C)c2ccc(OC(F)F)cc2)C(=O)c2c3c(nn21)C[C@@H](C)N(C(=O)c1ccc(Cl)c(Cl)c1)C3 [Compound 16A, (3R,7S)-2-(3,4-dichlorobenzoyl)-9-((R)-1-(4-(difluoromethoxy)phenyl)ethyl)-N,3-dimethyl-10-oxo-1,2,3,4,7,8,9,10-octahydropyrido[4′,3′:3,4]pyrazolo[1,5-a]pyrazine-7-carboxamide] | – | – | – | 0.021 | 40.4 | > 180 |
| CCC(c1ccc(S(C)(=O)=O)cc1)N1C[C@@H](C(=O)NC)n2nc3c(c2C1=O)CN(C(=O)c1ccc(Cl)c(Cl)c1)[C@H](C)C3 (single isomer, unassigned) [Compound 22A, (3R,7S)-2-(3,4-Dichlorobenzoyl)-N,3-dimethyl-9-((R*)-1-(4-(methylsulfonyl)phenyl)propyl)-10-oxo-1,2,3,4,7,8,9,10-octahydropyrido[4′,3′:3,4]pyrazolo[1,5-a]pyrazine-7-carboxamide] | 0.27 | – | – | – | > 50 | > 180 |
| CNC(=O)[C@@H]1CN(C(C)c2ccc(C)nn2)C(=O)c2c3c(nn21)C[C@@H](C)N(C(=O)c1ccc(Cl)c(Cl)c1)C3 (single isomer, unassigned) [Compound 1B, (3R,7S)-2-(3,4-Dichlorobenzoyl)-N,3-dimethyl-9-((S*)-1-(6-methylpyridazin-3-yl)ethyl)-10-oxo-1,2,3,4,7,8,9,10-octahydropyrido[4′,3′:3,4]pyrazolo[1,5-a]pyrazine-7-carboxamide] | – | – | – | 0.38 | > 50 | > 180 |
| C[C@@H]1Cc2nn3c(c2CN1C(=O)c1ccc(Cl)c(Cl)c1)C(=O)N([C@H](C)c1ccc(OC(F)F)cc1)CC3 [Ref 1, reference compound] | – | – | – | 0.069 | > 50 | 15.4 |
